SMILES strings stand for the structures. Counter-ions that a name gives are not always drawn. Like-named read-outs stand apart in the source and are kept apart here.

This note sets out measurements from US20250034200A1, “Prodrugs of Neurosteroid Analogs and Uses Thereof” (priority 2021, published 2025).

A short description of data set [1]: Aqueous stability assay (HPLC, pseudo first-order half-life). To be noted: DPBS pH 7.0-7.3, 1 mg/mL, room temperature; for half-life / half-life at 1 mg/mL: buffer, read-out: PBS t1/2 (converted). The format is physicochemical.
A short description of data set [2]: Plasma stability assay (LC-MS/MS). The settings on record: human plasma, 37° C., 3 μM; for half-life at 3 µM: read-out: Plasma t1/2 (converted). The class given is in vitro ADME. The protocol:
Procaine and procainamide were purchased from Sigma Aldrich. HPLC-grade acetonitrile, water, methanol, and formic acid were purchased from Fisher Scientific. Human plasma (Cat. No. […]2N) was obtained from BIOIVT, and PBS (1×Dulbecco's, pH 7.4) from Thermo Fisher Scientific.
Test compounds were dissolved in DMSO to make a stock solution of 10 mM and then diluted to 500 μM in buffer or 70% methanol. Human plasma was thawed at ambient temperature and aliquoted (994.0 μL) to a 1.5 mL Eppendorf tube in duplicates (vials A and B) for each compound. The plasma was incubated at 37° C. for 10 min in an incubator shaker at 150 RPM; the reaction was initiated by addition of the test compound (6.0 μL), followed by vortex mixing. The total reaction volume was 1000 μL, the final organic solvent concentrations were […] (when 70% methanol was used for dilution) and 0.03% DMSO, and the final concentration of the test compound was 3 μM. The spiked plasma samples were incubated at 37° C. for 4 h. The reactions were terminated at time point 0, 15, 30, 60, 120, 180, and 240 min by taking a 100 μL aliquot from the test incubation mixture and immediately quenching it by adding it into ice-cold acetonitrile or methanol (150 μL) containing 2 μM internal standard (ISTD), followed by vortex mixing. The ISTD was d5-7-ethoxy coumarin. The samples were then centrifuged at 15000 RPM for 25 min at 4° C., and the supernatant was transferred to an LC-MS vial for analysis by LC-MS/MS. Each time point was tested in duplicates followed by in-between blank washes to avoid carryover and to equilibrate the column.
Procaine (poor plasma stability) and procainamide (good plasma stability) were used as controls at the same concentration as that of the test compound. These controls were run in parallel to test the assay's competency. Matrix blank was prepared by adding acetonitrile or methanol containing ISTD to plasma samples without any of the test or control compounds. Also, an additional control sample was made to simply monitor compound degradation in PBS buffer.
Below is a summary of samples prepared for a given test compound in a typical plasma stability assay: • Test compound (TC): 994 μL human plasma+6.0 μL TC (Vial A) 994 μL human plasma+6.0 μL TC (Vial B) • Control: 596 μL human plasma+3.6 μL (procaine+procainamide) • Blank matrix: 500 μL PBS buffer+100 μL human plasma • Additional control: 142 μL PBS buffer+0.9 μL TC • Quenching mixture: 150 μL acetonitrile or methanol with ISTD (2 μM) • Final volume: 250 μL (100 μL from the incubation mixture+150 μL quenching mixture; final ISTD conc.: 1.2 μM)
LC-MS/MS analysis was performed using Agilent 1260 Infinity II HPLC, coupled with an Agilent G6460 triple quadrupole mass spectrometer (Agilent Technologies, USA). The data were acquired and processed using the Agilent 6460 Quantitative Analysis data processing software.
Reverse-phase HPLC separation for each compound was achieved on an Agilent InfinityLab Poroshell 120 C18 column (2.1×50 mm, 2.7 μm) with a mobile phase composed of methanol/water with 0.1% formic acid or acetonitrile/water with 0.1% formic acid at a flow rate of 0.5 mL/min. Each method was developed in the presence of the ISTD. The column temperature was maintained at 40° C. The detection was operated using the Agilent Jet-Stream electrospray positive ionization under the multiple reaction monitoring mode. The mass spec conditions were as follows: dwell time 100 ms; gas flow 10 L/min; nebulizer pressure 45 psi; delta EMV 200 V.
Plots of time (x-axis) vs. the natural logarithm of percent parent remaining (y-axis) were subsequently constructed to determine the slope. Finally, the plasma stability was evaluated using the following equation: […]

Data set [3] in a line: Nephelometry (aqueous solubility). The format is physicochemical. The settings on record: DPBS with 1% DMSO, aqueous buffer, kinetic from dmso stock, DPBS pH 7.0-7.3, 1% DMSO, 25° C. From the text: Well A1 of the plate contained 100% DMSO.

One may read the solubility as how much of the substance goes into solution per volume. Higher therefore signals a readily soluble substance. Consider `CNCCN(C(=O)O/N=C(\C)[C@H]1CC[C@H]2[C@@H]3CCC4=CC(=O)CC[C@]4(C)[C@H]3CC[C@]12C)C1CCCC1.O=C(O)C(F)(F)F` [53d, (E)-5-cyclopentyl-9-((8S,9S,10R,13S,14S,17S)-10,13-dimethyl-3-oxo-2,3,6,7,8,9,10,11,12,13,14,15,16,17-tetradecahydro-1H-cyclopenta[a]phenanthren-17-yl)-7-oxa-2,5,8-triazadec-8-en-6-one 2,2,2-trifluoroacetate], for which the “PBS t1/2” value in data set [1] worked out at 10.70 ± 0.15 h. Further, the “Plasma % rmn at 2 h” value in data set [2] was found to be 65%. For the same compound, in data set [3], the solubility at 90 min was over 750 µM.

As for `C/C(=N\OC(=O)N(CCNC(C)C)C(C)C)[C@H]1CC[C@H]2[C@@H]3CCC4=CC(=O)CC[C@]4(C)[C@H]3CC[C@]12C.Cl` [54b, (E)-2-((8S,9S,10R,13S,14S,17S)-10,13-dimethyl-3-oxo-2,3,6,7,8,9,10,11,12,13,14,15,16,17-tetradecahydro-1H-cyclopenta[a]phenanthren-17-yl)-6-isopropyl-10-methyl-4-oxa-3,6,9-triazaundec-2-en-5-one hydrochloride], in data set [1], the half-life is over 24 h. The “Plasma % rmn at 2 h” value in data set [2] is 84%. In addition, in data set [3], the solubility at 90 min was over 500 µM.

On to `C/C(=N\OC(=O)NC[C@@H]1CCCN1)[C@H]1CCC2[C@@H]3CCC4=CC(=O)CC[C@]4(C)[C@H]3CC[C@@]21C` (stereo partly drawn) [32g, (8S,9S,10R,13S,17S)-10,13-dimethyl-17-((E)-1-((((((S)-pyrrolidin-2-yl)methyl)carbamoyl)oxy)imino)ethyl)-1,2,6,7,8,9,10,11,12,13,14,15,16,17-tetradecahydro-3H-cyclopenta[a]phenanthren-3-one hydrochloride], for which, in data set [1] (d (days)), the half-life at 1 mg/mL is 396 h. In addition, in data set [2], the half-life at 3 µM is 9.6 h. Further, the solubility at 90 min in data set [3] was over 750 µM.

Turning to `CCNCCN(CC)C(=O)O/N=C(\C)[C@H]1CC[C@H]2[C@@H]3CCC4=CC(=O)CC[C@]4(C)[C@H]3CC[C@]12C.Cl` [54a, (E)-2-((8S,9S,10R,13S,14S,17S)-10,13-dimethyl-3-oxo-2,3,6,7,8,9,10,11,12,13,14,15,16,17-tetradecahydro-1H-cyclopenta[a]phenanthren-17-yl)-6-ethyl-4-oxa-3,6,9-triazaundec-2-en-5-one hydrochloride], the half-life in data set [1] was over 24 h. Besides, in data set [2], the “Plasma % rmn at 2 h” value is reported as 71%. This compound also gave a solubility at 90 min in data set [3] of over 750 µM.

Take `C/C(=N\OC(=O)NCCN)[C@H]1CC[C@H]2[C@@H]3CCC4=CC(=O)CC[C@]4(C)[C@H]3CC[C@]12C` [32a, (8S,9S,10R,13S,14S,17S)-17-((E)-1-((((2-aminoethyl)carbamoyl)oxy)imino)ethyl)-10,13-dimethyl-1,2,6,7,8,9,10,11,12,13,14,15,16,17-tetradecahydro-3H-cyclopenta[a]phenanthren-3-one hydrochloride]: in data set [1], the half-life at 1 mg/mL is over 30 h. Also, the “Plasma t1/2” value in data set [2] is on record as over 2 h. The compound also returned a solubility at 90 min in data set [3] of over 750 µM.

Consider `C/C(=N\OC(=O)N(C)CCNCCO)[C@H]1CC[C@H]2[C@@H]3CCC4=CC(=O)CC[C@]4(C)[C@H]3CC[C@]12C` [32d, 2-((((((E)-1-((8S,9S,10R,13S,14S,17S)-10,13-dimethyl-3-oxo-2,3,6,7,8,9,10,11,12,13,14,15,16,17-tetradecahydro-1H-cyclopenta[a]phenanthren-17-yl)ethylidene)amino)oxy)carbonyl)(methyl)amino)-N-(2-hydroxyethyl)ethan-1-aminium chloride], for which the half-life in data set [1] was 30.4 ± 5 h. The “Plasma t1/2” value in data set [2] came out at 2.8 h. Besides, the solubility at 90 min in data set [3] is over 500 µM.

As for `CNCCN(C(=O)O/N=C(\C)[C@H]1CC[C@H]2[C@@H]3CCC4=CC(=O)CC[C@]4(C)[C@H]3CC[C@]12C)C(C)C.O=C(O)C(F)(F)F` [53a, (E)-9-((8S,9S,10R,13S,14S,17S)-10,13-dimethyl-3-oxo-2,3,6,7,8,9,10,11,12,13,14,15,16,17-tetradecahydro-1H-cyclopenta[a]phenanthren-17-yl)-5-isopropyl-7-oxa-2,5,8-triazadec-8-en-6-one 2,2,2-trifluoroacetate], the “PBS t1/2” value in data set [1] was 19.72 ± 0.38 h. Also, the “Plasma % rmn at 2 h” value in data set [2] is 41%. In addition, the solubility at 90 min in data set [3] was over 750 µM.

With `CNCCN(C(=O)O/N=C(\C)[C@H]1CC[C@H]2[C@@H]3CCC4=CC(=O)CC[C@]4(C)[C@H]3CC[C@]12C)C1CC1.O=C(O)C(F)(F)F` [53b, (E)-5-cyclopropyl-9-((8S,9S,10R,13S,14S,17S)-10,13-dimethyl-3-oxo-2,3,6,7,8,9,10,11,12,13,14,15,16,17-tetradecahydro-1H-cyclopenta[a]phenanthren-17-yl)-7-oxa-2,5,8-triazadec-8-en-6-one 2,2,2-trifluoroacetate], in data set [1], the “PBS t1/2” value is listed as 28.16 ± 0.04 h. For the same compound, the “Plasma % rmn at 2 h” value in data set [2] worked out at 45%. The same compound returned a solubility at 90 min in data set [3] of over 750 µM.

`C/C(=N\OC(=O)N(CCO)CCNCCO)[C@H]1CC[C@H]2[C@@H]3CCC4=CC(=O)CC[C@]4(C)[C@H]3CC[C@]12C.Cl` [54d, (E)-2-((8S,9S,10R,13S,14S,17S)-10,13-dimethyl-3-oxo-2,3,6,7,8,9,10,11,12,13,14,15,16,17-tetradecahydro-1H-cyclopenta[a]phenanthren-17-yl)-11-hydroxy-6-(2-hydroxyethyl)-4-oxa-3,6,9-triazaundec-2-en-5-one hydrochloride]: the “PBS t1/2” value in data set [1] turned out to be 28.79 ± 3.16 h. The “Plasma % rmn at 2 h” value in data set [2] was determined as 32%. In addition, the solubility at 90 min in data set [3] is over 750 µM.

On to `CNCCN(CCO)C(=O)O/N=C(\C)[C@H]1CC[C@H]2[C@@H]3CCC4=CC(=O)CC[C@]4(C)[C@H]3CC[C@]12C` [32c, 2-((((((E)-1-((8S,9S,10R,13S,14S,17S)-10,13-dimethyl-3-oxo-2,3,6,7,8,9,10,11,12,13,14,15,16,17-tetradecahydro-1H-cyclopenta[a]phenanthren-17-yl)ethylidene)amino)oxy)carbonyl)(2-hydroxyethyl)amino)-N-methylethan-1-aminium chloride], for which the half-life at 1 mg/mL in data set [1] is 24.8 ± 1.1 h. The half-life at 3 µM in data set [2] is 1.7 h. Further, in data set [3], the solubility at 90 min is over 500 µM.

`CNCCN(CCNC)C(=O)O/N=C(\C)[C@H]1CC[C@H]2[C@@H]3CCC4=CC(=O)CC[C@]4(C)[C@H]3CC[C@]12C.Cl.Cl` [53i, (E)-9-((8S,9S,10R,13S,14S,17S)-10,13-dimethyl-3-oxo-2,3,6,7,8,9,10,11,12,13,14,15,16,17-tetradecahydro-1H-cyclopenta[a]phenanthren-17-yl)-5-(2-(methylamino)ethyl)-7-oxa-2,5,8-triazadec-8-en-6-one dihydrochloride]: the “PBS t1/2” value in data set [1] was determined as 1.51 ± 0.05 h. This compound also displayed a solubility at 90 min in data set [3] of over 750 µM.

Regarding `C/C(=N\OC(=O)NC[C@@H]1CCCCN1)[C@H]1CCC2[C@@H]3CCC4=CC(=O)CC[C@]4(C)[C@H]3CC[C@@]21C` (stereo partly drawn) [32i, (8S,9S,10R,13S,17S)-10,13-dimethyl-17-((E)-1-((((((S)-piperidin-2-yl)methyl)carbamoyl)oxy)imino)ethyl)-1,2,6,7,8,9,10,11,12,13,14,15,16,17-tetradecahydro-3H-cyclopenta[a]phenanthren-3-one hydrochloride], the half-life at 1 mg/mL in data set [1] (d (days)) is 684 h. The solubility at 90 min in data set [3] is over 750 µM.
